Legend:
[1] = system: Phytophthora infestans; type: in vivo; details: 50 ppm; control value, tomato late blight
[2] = system: Rhizoctonia solani AG-1; experiment: Fungicidal activity against rice sheath blight (RSB) disease; details: 50 ppm, control value
Experimental: 50 ml of the resulting solution was sprayed on leaves of a host plant. The plant was kept at room temperature for 24 hours to let the solvent evaporate, and then, a pathogenic fungus was inoculated thereonto. The plant was held in a humidity chamber for 24 hours, transferred to an plant growth room kept at 20 to 27° C. and a relative humidity of 60 to 80% and kept to induce disease. Subsequently, the lesion area(L.A.) attacked by the pathogenic fungus was measured according to a method of Cho(Cho, K. Y., Search Report by Korea Research Institute of Chemical Technology (1989))”. This procedure was repeated twice for each test. 10% Acetone solution containing 250 ppm of Tween-20 was used as a control.
The fungicidal activity of the compound of the present invention is repressed by a control value (C.V.) calculated as; [formula]
Rhizoctonia solani AG-1 was cultured on a PDA medium(potato 200 g, dextrose 20 g, agar 20 g and distilled water 1 l) for 3 days and the agar disc (diameter 0.6 cm) was inoculated and cultured on sterilized wheat bran medium in a 1 l bottle at 26 to 28° C. for 7 days. A mycelial mass was ground using a homogenizer, inoculated uniformly on soil of a pot wherein a Nakdong rice plant having 2 or 3 leaves and an height of 5 cm grew, and kept in humidity polyvinyl chamber for 5 days to induce RSB. L.A. on a leaf sheath was measured to calculate an C.V.

[3] = system: Erysiphae graminis; experiment: Fungicidal activity against barley powdery mildew (BPM) disease; type: in vivo; details: for C. V. (%), Fungicidal activities against TLB at 10 ppm: Table 9 (Test Example 6); for C. V. (%) BPM: 50 ppm, control value, barley powdery mildew
Experimental: Erysiphae graminis was subcultured on a wheat plant in a laboratory. 15 g of barley seeds was sowed in a pot (diameter 6.5 cm) and cultured in a greenhouse for 7 days to obtain a barley plant having only a primary leaf. The barley plant was inoculated with spores by shaking thereover another plant infected by BPM. The inoculated barley plant was cultured in an incubator maintained at a temperature of 22 to 24° C. and a relative humidity of 50% for 7 days to induce BPM. L.A. on the leaf was measured to calculate an C.V.

[4] = system: Botrytis cinerae; experiment: Fungicidal activity against cucumber gray mold rot (CGM) disease; type: in vivo; details: 50 ppm, control value
Experimental: Botrytis cinerae, which was isolated from cucumber infected thereby, was inoculated on a PDA agar medium and cultured under a 12L/12D cycle at 25° C. for 15 days to form spore. The spores were scraped, filtered through a gauze and then suspended in potato dextrose liquid medium at a concentration of 1×10^6 spore/ml. The spore suspension was sprayed on a cucumber plant having one leaf. The cucumber plant was held in a humidified room at 20° C. for 3 days. L.A. on a leaf was measured to calculate an C.V.

[5] = system: Puccinia recondita; experiment: Fungicidal activity against wheat leaf rust (WLR) disease; type: in vivo; details: for C. V. (%), Fungicidal Activities against WLB at 10 ppm: Table 8 (Test Example 5); for C. V. (%) WLR: 50 ppm, control value, wheat leaf rust
[6] = system: Pyricularia oryzae Carvara KA301; type: in vivo; details: for C. V. (%) RCB: 50 ppm, control value, rice blast; for C. V. (%) Fungicidal Activities against RCB at 10 ppm / C. V. (%) Fungicidal Activities against RCB at 10 ppm (TABLE 6): sprayed on Nakdong rice plant, control value from lesion area

CO/C=C(/C(=O)OC)c1ccccc1COc1cccc(OC(F)=Cc2ccccc2)c1 [Compound 1, methyl (2E)-3-methoxy-2-{2′-{3″-(2′″-fluorostyryl)-2′″-oxy}phenoxymethyl}phenyl-2-propenoate]
C. V. (%) TLB [1]: 70% | C. V. (%) RSB [2]: 95% | C. V. (%), Fungicidal activities against TLB at 10 ppm [3]: 100% | C. V. (%) BPM [3]: 100% | C. V. (%) CGM [4]: 62% | C. V. (%), Fungicidal Activities against WLB at 10 ppm [5]: 96% | C. V. (%) WLR [5]: 100% | C. V. (%) RCB [6]: 97%

CNC(=O)/C(=C/OC)c1ccccc1COc1cccc(OC(F)=Cc2ccccc2)c1 [Compound 2, (2E)-N-methyl-3-methoxy-2-{2′-{3″-(2′″-fluorostyryl)-2′″-oxy}phenoxymethyl}phenyl-2-propenamide]
C. V. (%) TLB [1]: 74% | C. V. (%) RSB [2]: 50% | C. V. (%) BPM [3]: 86% | C. V. (%) CGM [4]: 84% | C. V. (%) WLR [5]: 96% | C. V. (%) RCB [6]: 100%

CON=C(C(=O)OC)c1ccccc1COc1cccc(OC(F)=Cc2ccccc2)c1 [Compound 3]
C. V. (%) TLB [1]: 70% | C. V. (%) RSB [2]: 70% | C. V. (%) BPM [3]: 41% | C. V. (%) CGM [4]: 15% | C. V. (%) WLR [5]: 93% | C. V. (%) RCB [6]: 100%

COC(=O)C(=CSC)c1ccccc1COc1cccc(OC(F)=Cc2ccccc2)c1 [Compound 4]
C. V. (%) TLB [1]: 86% | C. V. (%) RSB [2]: 75% | C. V. (%) BPM [3]: 91% | C. V. (%) CGM [4]: 33% | C. V. (%) WLR [5]: 85% | C. V. (%) RCB [6]: 90%

COC=C(C(=O)OC)c1ccccc1COc1cccc(OC(F)=Cc2ccccc2C)c1 [Compound 5]
C. V. (%) TLB [1]: 50% | C. V. (%) RSB [2]: 95% | C. V. (%), Fungicidal activities against TLB at 10 ppm [3]: 94% | C. V. (%) BPM [3]: 99% | C. V. (%) CGM [4]: 0% | C. V. (%), Fungicidal Activities against WLB at 10 ppm [5]: 95% | C. V. (%) WLR [5]: 100% | C. V. (%) Fungicidal Activities against RCB at 10 ppm [6]: 94% | C. V. (%) Fungicidal Activities against RCB at 10 ppm (TABLE 6) [6]: 94% | C. V. (%) RCB [6]: 95%

COC=C(C(=O)OC)c1ccccc1COc1cccc(OC(F)=Cc2cccc(C)c2)c1 [Compound 6]
C. V. (%) TLB [1]: 86% | C. V. (%) RSB [2]: 65% | C. V. (%), Fungicidal activities against TLB at 10 ppm [3]: 100% | C. V. (%) BPM [3]: 100% | C. V. (%) CGM [4]: 41% | C. V. (%), Fungicidal Activities against WLB at 10 ppm [5]: 91% | C. V. (%) WLR [5]: 98% | C. V. (%) Fungicidal Activities against RCB at 10 ppm [6]: 96% | C. V. (%) Fungicidal Activities against RCB at 10 ppm (TABLE 6) [6]: 96% | C. V. (%) RCB [6]: 100%

CNC(=O)C(=COC)c1ccccc1COc1cccc(OC(F)=Cc2cccc(C)c2)c1 [Compound 7]
C. V. (%) TLB [1]: 46% | C. V. (%) RSB [2]: 10% | C. V. (%) BPM [3]: 0% | C. V. (%) CGM [4]: 33% | C. V. (%) WLR [5]: 0% | C. V. (%) RCB [6]: 26%

CON=C(C(=O)OC)c1ccccc1COc1cccc(OC(F)=Cc2cccc(C)c2)c1 [Compound 8]
C. V. (%) TLB [1]: 92% | C. V. (%) RSB [2]: 92% | C. V. (%), Fungicidal activities against TLB at 10 ppm [3]: 93% | C. V. (%) BPM [3]: 97% | C. V. (%) CGM [4]: 51% | C. V. (%), Fungicidal Activities against WLB at 10 ppm [5]: 90% | C. V. (%) WLR [5]: 98% | C. V. (%) Fungicidal Activities against RCB at 10 ppm [6]: 90% | C. V. (%) Fungicidal Activities against RCB at 10 ppm (TABLE 6) [6]: 90% | C. V. (%) RCB [6]: 100%

COC(=O)C(=CSC)c1ccccc1COc1cccc(OC(F)=Cc2cccc(C)c2)c1 [Compound 9]
C. V. (%) TLB [1]: 26% | C. V. (%) RSB [2]: 92% | C. V. (%) BPM [3]: 95% | C. V. (%) CGM [4]: 33% | C. V. (%) WLR [5]: 88% | C. V. (%) RCB [6]: 96%

COC=C(C(=O)OC)c1ccccc1COc1cccc(OC(F)=Cc2ccc(C)cc2)c1 [Compound 10]
C. V. (%) TLB [1]: 50% | C. V. (%) RSB [2]: 92% | C. V. (%), Fungicidal activities against TLB at 10 ppm [3]: 97% | C. V. (%) BPM [3]: 95% | C. V. (%) CGM [4]: 0% | C. V. (%), Fungicidal Activities against WLB at 10 ppm [5]: 96% | C. V. (%) WLR [5]: 100% | C. V. (%) Fungicidal Activities against RCB at 10 ppm [6]: 95% | C. V. (%) Fungicidal Activities against RCB at 10 ppm (TABLE 6) [6]: 95% | C. V. (%) RCB [6]: 97%

CNC(=O)C(=COC)c1ccccc1COc1cccc(OC(F)=Cc2ccc(C)cc2)c1 [Compound 11]
C. V. (%) TLB [1]: 20% | C. V. (%) RSB [2]: 5% | C. V. (%) BPM [3]: 25% | C. V. (%) CGM [4]: 15% | C. V. (%) WLR [5]: 43% | C. V. (%) RCB [6]: 16%

CON=C(C(=O)OC)c1ccccc1COc1cccc(OC(F)=Cc2ccc(C)cc2)c1 [Compound 12]
C. V. (%) TLB [1]: 84% | C. V. (%) RSB [2]: 80% | C. V. (%), Fungicidal activities against TLB at 10 ppm [3]: 96% | C. V. (%) BPM [3]: 94% | C. V. (%) CGM [4]: 27% | C. V. (%), Fungicidal Activities against WLB at 10 ppm [5]: 97% | C. V. (%) WLR [5]: 93% | C. V. (%) RCB [6]: 100%
